{"source": "paper PMC6295285", "about": "(Pharmaceutical research, 2018)", "key": {"human OCT2": {"target": "T1, human OCT2 (Homo sapiens, UniProt O15244)", "T1 sequence (O15244 1-555)": "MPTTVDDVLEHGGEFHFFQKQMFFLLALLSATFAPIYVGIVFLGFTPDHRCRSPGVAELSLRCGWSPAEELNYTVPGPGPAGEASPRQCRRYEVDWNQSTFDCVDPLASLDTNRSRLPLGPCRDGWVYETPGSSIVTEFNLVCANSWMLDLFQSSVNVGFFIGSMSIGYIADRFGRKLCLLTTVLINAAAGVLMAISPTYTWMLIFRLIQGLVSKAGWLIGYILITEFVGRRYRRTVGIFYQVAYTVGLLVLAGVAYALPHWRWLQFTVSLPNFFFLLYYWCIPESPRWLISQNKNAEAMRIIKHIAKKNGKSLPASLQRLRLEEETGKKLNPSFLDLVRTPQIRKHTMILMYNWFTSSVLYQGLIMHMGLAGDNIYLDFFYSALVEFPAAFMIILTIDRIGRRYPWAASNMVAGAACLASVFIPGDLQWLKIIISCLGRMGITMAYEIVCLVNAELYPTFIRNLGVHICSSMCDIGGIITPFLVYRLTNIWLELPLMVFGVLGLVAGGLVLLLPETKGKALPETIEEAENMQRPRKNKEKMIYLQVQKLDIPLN", "experiment": "Inhibition of metformin uptake in HEK-293 cells overexpressing hOCT2", "details": "for Selectivity category hOCT2 versus hMATEs: comparison of IC50 for hOCT2, hMATE1, hMATE2-K; for Effect on hOCT2 activity at low concentrations (hOCT2-enhancer): low but clinically relevant concentrations (less than 10 μM)"}, "mouse Oct1": {"target": "T2, mouse Oct1 (Mus musculus, UniProt O08966)", "T2 sequence (O08966 1-556)": "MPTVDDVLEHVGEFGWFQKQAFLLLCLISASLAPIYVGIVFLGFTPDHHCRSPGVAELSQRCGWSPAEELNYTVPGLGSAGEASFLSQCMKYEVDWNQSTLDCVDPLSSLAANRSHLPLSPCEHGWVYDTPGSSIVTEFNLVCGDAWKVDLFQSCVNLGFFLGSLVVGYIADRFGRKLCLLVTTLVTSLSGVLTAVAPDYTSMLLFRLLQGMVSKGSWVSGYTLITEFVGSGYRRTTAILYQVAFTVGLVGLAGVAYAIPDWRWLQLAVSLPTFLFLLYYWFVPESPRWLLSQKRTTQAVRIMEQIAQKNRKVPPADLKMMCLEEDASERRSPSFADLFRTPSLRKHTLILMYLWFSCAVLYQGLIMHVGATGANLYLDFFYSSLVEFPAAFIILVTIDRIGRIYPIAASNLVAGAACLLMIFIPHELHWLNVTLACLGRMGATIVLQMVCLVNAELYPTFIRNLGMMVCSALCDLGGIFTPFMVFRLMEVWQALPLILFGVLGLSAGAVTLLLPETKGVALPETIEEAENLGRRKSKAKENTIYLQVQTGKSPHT", "experiment": "Inhibition of metformin uptake in HEK-293 cells overexpressing mouse Oct1", "assay_type": "cell-based"}, "human OCT1": {"target": "T3, human OCT1 (Homo sapiens, UniProt O15245)", "T3 sequence (O15245 1-554)": "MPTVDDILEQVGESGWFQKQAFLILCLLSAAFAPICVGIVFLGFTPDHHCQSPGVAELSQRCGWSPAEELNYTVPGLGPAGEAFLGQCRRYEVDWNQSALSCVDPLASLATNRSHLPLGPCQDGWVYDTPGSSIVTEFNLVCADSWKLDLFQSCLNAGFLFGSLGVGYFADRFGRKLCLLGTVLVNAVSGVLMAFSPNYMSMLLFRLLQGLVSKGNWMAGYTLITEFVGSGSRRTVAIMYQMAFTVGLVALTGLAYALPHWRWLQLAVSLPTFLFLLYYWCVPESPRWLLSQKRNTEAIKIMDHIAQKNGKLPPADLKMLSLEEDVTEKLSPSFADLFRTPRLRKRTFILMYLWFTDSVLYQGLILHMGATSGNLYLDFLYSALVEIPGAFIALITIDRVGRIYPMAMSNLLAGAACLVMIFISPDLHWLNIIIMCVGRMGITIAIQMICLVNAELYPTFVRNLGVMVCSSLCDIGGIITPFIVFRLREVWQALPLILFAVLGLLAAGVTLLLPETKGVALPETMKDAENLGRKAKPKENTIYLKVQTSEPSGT", "experiment": "Inhibition of metformin uptake in HEK-293 cells overexpressing hOCT1", "assay_type": "cell-based"}, "mouse Oct2": {"target": "T4, mouse Oct2 (Mus musculus, UniProt O70577)", "T4 sequence (O70577 1-553)": "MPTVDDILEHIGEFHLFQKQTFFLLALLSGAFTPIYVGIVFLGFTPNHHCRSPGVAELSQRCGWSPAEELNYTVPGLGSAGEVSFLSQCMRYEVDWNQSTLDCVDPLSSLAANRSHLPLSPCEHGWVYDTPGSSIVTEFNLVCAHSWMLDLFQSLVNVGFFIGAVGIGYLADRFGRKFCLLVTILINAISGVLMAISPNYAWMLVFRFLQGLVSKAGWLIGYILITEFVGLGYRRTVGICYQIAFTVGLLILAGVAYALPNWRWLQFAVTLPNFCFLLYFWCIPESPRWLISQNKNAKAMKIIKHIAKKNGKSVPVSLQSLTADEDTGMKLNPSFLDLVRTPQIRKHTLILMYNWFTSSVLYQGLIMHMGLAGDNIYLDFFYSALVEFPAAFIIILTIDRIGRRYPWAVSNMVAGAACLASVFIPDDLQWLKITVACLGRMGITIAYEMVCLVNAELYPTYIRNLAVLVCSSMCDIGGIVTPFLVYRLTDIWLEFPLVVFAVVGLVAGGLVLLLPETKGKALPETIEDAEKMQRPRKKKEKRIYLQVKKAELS", "experiment": "Inhibition of metformin uptake in HEK-293 cells overexpressing mouse Oct2", "assay_type": "cell-based"}, "human MATE1": {"target": "T5, human MATE1 (Homo sapiens, UniProt Q96FL8)", "T5 sequence (Q96FL8 1-570)": "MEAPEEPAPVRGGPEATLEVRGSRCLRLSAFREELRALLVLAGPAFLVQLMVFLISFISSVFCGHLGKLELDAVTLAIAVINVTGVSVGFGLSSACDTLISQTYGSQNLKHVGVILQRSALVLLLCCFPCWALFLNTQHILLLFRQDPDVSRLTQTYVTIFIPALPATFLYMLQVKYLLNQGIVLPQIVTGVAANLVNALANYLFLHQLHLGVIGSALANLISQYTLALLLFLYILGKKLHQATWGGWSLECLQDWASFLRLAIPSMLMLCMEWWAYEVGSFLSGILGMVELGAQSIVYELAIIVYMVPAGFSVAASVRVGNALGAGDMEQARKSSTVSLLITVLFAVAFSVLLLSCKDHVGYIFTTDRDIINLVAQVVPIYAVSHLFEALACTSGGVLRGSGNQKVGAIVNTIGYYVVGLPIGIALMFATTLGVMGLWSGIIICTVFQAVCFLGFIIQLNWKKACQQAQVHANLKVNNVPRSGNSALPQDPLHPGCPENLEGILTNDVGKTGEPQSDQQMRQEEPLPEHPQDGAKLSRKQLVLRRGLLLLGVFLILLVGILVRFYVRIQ", "experiment": "Inhibition of metformin uptake in HEK-293 cells overexpressing hMATE1", "assay_type": "cell-based", "details": "IC50 for inhibition of hMATE1, metformin 50 μM probe substrate, HEK293-hMATE1"}, "[1]": {"experiment": "Metformin pharmacokinetics in mice with carvedilol", "assay_type": "in vivo, mouse", "details": "carvedilol 2 mg/kg; at 30, 45 and 60 min"}, "[2]": {"details": "cited from earlier work"}, "C57BL/6J mice": {"system": "C57BL/6J mice", "experiment": "Cisplatin-induced nephrotoxicity in mice", "assay_type": "in vivo, mouse", "details": "72 h"}, "HEK-hOCT2 cells [3]": {"system": "HEK-hOCT2 cells", "experiment": "Cisplatin accumulation in HEK-hOCT2 cells", "assay_type": "cell-based, human", "details": "carvedilol 10 μM + cisplatin 100 μM 2 h, then 22 h normal medium"}, "mouse Mate1": {"target": "T6, mouse Mate1 (Mus musculus, UniProt Q8K0H1)", "T6 sequence (Q8K0H1 1-567)": "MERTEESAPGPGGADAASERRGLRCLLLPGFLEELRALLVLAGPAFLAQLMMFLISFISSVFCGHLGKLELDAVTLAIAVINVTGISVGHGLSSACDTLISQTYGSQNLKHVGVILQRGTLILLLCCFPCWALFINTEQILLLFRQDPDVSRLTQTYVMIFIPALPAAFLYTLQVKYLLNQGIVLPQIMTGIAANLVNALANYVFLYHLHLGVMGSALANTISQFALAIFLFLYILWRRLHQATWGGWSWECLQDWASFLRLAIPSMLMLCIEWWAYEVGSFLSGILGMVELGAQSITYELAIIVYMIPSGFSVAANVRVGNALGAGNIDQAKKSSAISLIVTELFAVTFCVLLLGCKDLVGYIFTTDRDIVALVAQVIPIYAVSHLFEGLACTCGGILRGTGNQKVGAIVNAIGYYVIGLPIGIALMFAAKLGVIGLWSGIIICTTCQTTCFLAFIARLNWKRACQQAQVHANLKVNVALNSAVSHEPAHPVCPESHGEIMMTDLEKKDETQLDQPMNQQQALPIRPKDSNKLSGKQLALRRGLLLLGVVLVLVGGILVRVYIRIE", "experiment": "Inhibition of metformin uptake in HEK-293 cells overexpressing mouse Mate1", "assay_type": "cell-based"}, "HEK-hOCT2 cells [4]": {"system": "HEK-hOCT2 cells", "experiment": "Cisplatin cytotoxicity, cell viability by CCK-8", "assay_type": "cell-based, human", "details": "carvedilol 10 μM + cisplatin 100 μM 2 h, then 22 h"}, "HEK-control cells": {"system": "HEK-control cells", "experiment": "Cisplatin accumulation in HEK-control cells", "assay_type": "cell-based, human", "details": "carvedilol 10 μM + cisplatin 100 μM 2 h, then 22 h normal medium"}, "[5]": {"details": "carvedilol 2 mg/kg x2 + cisplatin 10 mg/kg"}}}
{"smiles": "CCCCOc1ccc(CC(=O)NO)cc1", "note": "[Bufexamac]", "values": [{"measurement": "Selectivity category hOCT2 versus hMATEs", "setting": "human OCT2", "result": "selective hOCT2 inhibitors"}]}
{"smiles": "CC(C)(C)NC(=O)[C@@H]1C[C@@H]2CCCC[C@@H]2CN1C[C@@H](O)[C@H](Cc1ccccc1)NC(=O)[C@H](CC(N)=O)NC(=O)c1ccc2ccccc2n1", "note": "[Saquinavir]", "values": [{"measurement": "Effect on hOCT2-mediated metformin uptake at high concentrations", "setting": "human OCT2", "result": "could inhibit hOCT2-mediated metformin uptake"}, {"measurement": "Effect on hOCT2 activity at low concentrations (hOCT2-enhancer)", "setting": "human OCT2", "result": "increase hOCT2 activity"}]}
{"smiles": "C(=C\\c1ccccc1)/CN1CCN(C(c2ccccc2)c2ccccc2)CC1", "note": "[Cimnasizine]", "values": [{"measurement": "Effect on hOCT2-mediated metformin uptake at high concentrations", "setting": "human OCT2", "result": "could inhibit hOCT2-mediated metformin uptake"}, {"measurement": "Effect on hOCT2 activity at low concentrations (hOCT2-enhancer)", "setting": "human OCT2", "result": "increase hOCT2 activity"}]}
{"smiles": "CCC(C)n1ncn(-c2ccc(N3CCN(c4ccc(OCC5COC(Cn6cncn6)(c6ccc(Cl)cc6Cl)O5)cc4)CC3)cc2)c1=O", "note": "(stereo not shown) [Itraconazole]", "values": [{"measurement": "Effect on hOCT2-mediated metformin uptake at high concentrations", "setting": "human OCT2", "result": "could inhibit hOCT2-mediated metformin uptake"}, {"measurement": "Effect on hOCT2 activity at low concentrations (hOCT2-enhancer)", "setting": "human OCT2", "result": "increase hOCT2 activity"}]}
{"smiles": "CC(C)C(=O)Nc1ccc([N+](=O)[O-])c(C(F)(F)F)c1", "note": "[Flutamide]", "values": [{"measurement": "Selectivity category hOCT2 versus hMATEs", "setting": "human OCT2", "result": "selective hOCT2 inhibitors"}]}
{"smiles": "COc1ccccc1OCCNCC(O)COc1cccc2[nH]c3ccccc3c12", "note": "(stereo not shown) [Carvedilol]", "values": [{"measurement": "IC50", "setting": "mouse Oct1", "result": 2.8, "unit": "µM"}, {"measurement": "Selectivity category hOCT2 versus hMATEs", "setting": "human OCT2", "result": "selective hOCT2 inhibitors"}, {"measurement": "IC50", "setting": "human OCT1", "result": 6.4, "unit": "µM"}, {"measurement": "IC50", "setting": "mouse Oct2", "result": 23.1, "unit": "µM"}, {"measurement": "IC50", "setting": "human MATE1", "result": 103, "unit": "µM"}, {"measurement": "Plasma concentrations of metformin compared to vehicle", "setting": "[1]", "result": "significantly increased"}, {"measurement": "Time to peak plasma concentration", "setting": "[2]; after oral administration", "result": "1—2 h"}, {"measurement": "Oral bioavailability", "setting": "[2]; human, oral", "result": 24, "unit": "%"}, {"measurement": "Plasma binding", "setting": "[2]; mostly bound to albumin", "result": "approximately 95%"}, {"measurement": "Terminal half-life", "setting": "[2]; oral administration", "result": "6—10 h"}, {"measurement": "Kidney histology (renal damage), co-administration", "setting": "C57BL/6J mice; [5]", "result": "substantially ameliorated"}, {"measurement": "Kim-1 gene transcripts in kidney, co-administration", "setting": "C57BL/6J mice; [5]", "result": "almost be brought down to the normal base"}, {"measurement": "Kidney histology, treatment-only group", "setting": "C57BL/6J mice; carvedilol only", "result": "No visible morphological change"}, {"measurement": "Accumulation of cisplatin in HEK-hOCT2 stable cells", "setting": "HEK-hOCT2 cells [3]", "result": "3.77 ± 0.02", "unit": "ppm/mg protein"}, {"measurement": "IC50", "setting": "mouse Mate1", "result": 67, "unit": "µM"}, {"measurement": "Cell viability of cisplatin-treated HEK-hOCT2 cells with co-treatment", "setting": "HEK-hOCT2 cells [4]", "result": "significantly rescued"}, {"measurement": "Accumulation of cisplatin in control cells", "setting": "HEK-control cells", "result": "3.87 ± 0.06", "unit": "ppm/mg protein"}]}
